Experimental data taken from publication PMC9643456, “Matching amino acids membrane preference profile to improve activity of antimicrobial peptides” (Communications Biology, 2022).
Values after ≈ are worked out from the molar mass of the structure shown. Square brackets hold non-standard residues; d marks the D form. Ends that are not written are not given here. Peptide text beside a SMILES is read from it. Trp(2,5,7-tBu3) = CC(C)(C)c1cc(C(C)(C)C)c2[nH]c(C(C)(C)C)c(C[C@H](N)C(=O)O)c2c1; Trp(5-OH) = N[C@@H](Cc1c[nH]c2ccc(O)cc12)C(=O)O

What was measured:
human red blood cells = assay: Hemolytic activity; type: cell-based; details: red cells of human, 18 h
Procedure, shortened: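 Peptides (100 μM down to 0.78 μM) were incubated with 4% final human erythrocytes in PBS for 18 h at 37 °C. Supernatant absorbance at 540 nm after centrifugation was scaled to 1% Triton X-100 (100%) and no peptide (0%); melittin served as positive control; triplicate runs.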

MDR S. aureus = assay: microbe, parasite or virus in culture; details: CLSI broth microdilution; CAMHB with 50 mg/L Ca2+, 10 mg/L Mg2+; 5 × 10^5 CFU/ml; 18 h 37 °C; triplicate; strain KCCM 40510
From the text: (§1) MDR Pseudomonas aeruginosa (CCARM 2180) was purchased from the Culture Collection of Antimicrobial Resistance Microbes (Seoul, Republic of Korea). MDR Acinetobacter baumannii (ATCC BAA-1605) and MDR Enterococcus faecalis (ATCC 51575) were purchased from the American Type Culture Collection (Manassas, VA, USA). MDR Staphylococcus aureus (KCCM 40510) was purchased from the Korean Culture Center of Microorganisms (Seoul, Republic of Korea). S. aureus (KCTC 1621) was purchased from the Korean Collection for Type Cultures. A. baumannii (KCCM 40203) was purchased from the Korean Culture Center of Microorganisms (Seoul, Republic of Korea).
(§2) To assess antimicrobial activity, the MIC50 and MIC90 were measured using broth microdilution following CLSI guidelines. […] Each experiment was performed in triplicate. Meropenem (Sigma, Darmstadt, Germany) and colistin were used as control antibiotics. Cation-adjusted Mueller–Hinton broth (CAMHB) (Becton, Dickinson and Company, Franklin Lakes, USA) with supplied calcium (50 mg/L) and magnesium (10 mg/L) was used for the CLSI-test condition. Bacteria in midlog phase and peptides were separately diluted in CAMHB. The bacteria and peptide solutions were then mixed in 96-well polyethylene plates (SPL, Gyeonggi-do, Korea) and incubated for 18 h at 37 °C. The final concentration for bacteria was 5 × 10^5 CFU/ml. […] The MIC was defined to be the lowest concentration of peptide without visible turbidity by comparing with control antibiotics with the unaided eye. […] Each experiment was performed in triplicate. MICs in albumin and acetic acid solutions were measured using the same protocol but with 0.2% bovine serum albumin (Bovogen, Keilor, Australia), 0.01% acetic acid (Merck, New Jersey, USA), and CAMHB with both calcium and magnesium. In addition, MICs used in the antibiotic resistance acquisition test, the outer–inner membrane permeation test, and the transmembrane potential test and for FE-SEM were individually determined. The final bacterial concentrations used were as follows: for resistance acquisition, optical density (OD) 0.01; for outer–inner membrane permeability assays (LB), OD 0.1; for the transmembrane potential test, 1 × 10^8 CFU/ml (OD 0.171); […]. Inhibitory activity unidentifiable by direct observation was determined by counting the CFUs. Each experiment was performed at least twice.

MDR P. aeruginosa = assay: microbe, parasite or virus in culture; details: CLSI broth microdilution; CAMHB with 50 mg/L Ca2+, 10 mg/L Mg2+; 5 × 10^5 CFU/ml; 18 h 37 °C; no visible turbidity; triplicate; strain CCARM 2180
From the text: as §1, §2

MDR A. baumannii = assay: microbe, parasite or virus in culture; details: for Minimum inhibitory concentrations, MDR A. baumannii: CLSI broth microdilution, CAMHB with 50 mg/L Ca2+, 10 mg/L Mg2+, 5 × 10^5 CFU/ml, 18 h 37 °C, triplicate, strain ATCC BAA-1605
From the text: as §1, §2

MDR E. faecalis = assay: microbe, parasite or virus in culture; details: CLSI broth microdilution; CAMHB with 50 mg/L Ca2+, 10 mg/L Mg2+; 5 × 10^5 CFU/ml; 18 h 37 °C; triplicate; strain ATCC 51575
From the text: as §1, §2

Molecule | Hemolysis percent, 25 μM (human red blood cells) | Hemolysis percent, 50 μM (human red blood cells) | Hemolysis percent, 100 μM (human red blood cells) | Minimum inhibitory concentrations, MDR S. aureus (MDR S. aureus) | Minimum inhibitory concentrations, MDR P. aeruginosa (MDR P. aeruginosa) | Minimum inhibitory concentrations, MDR A. baumannii (MDR A. baumannii) | actual MIC as weight/volume concentration (MDR A. baumannii; molar MIC converted with the molecular weight (melittin 2.85 kDa, WCopW5 1.47 kDa)) | Minimum inhibitory concentrations, MDR E. faecalis (MDR E. faecalis)
CC[C@@H](C)[C@@H](NC(=O)[C@@H](Cc1c[nH]c2ccccc12)NC(=O)[C@@H](CC(C)C)NC(=O)[C@@H](CC(C)C)NC(=O)[C@H](N)Cc1c[nH]c2ccccc12)C(=O)NCC(=O)N[C@H](CC(C)C)C(=O)N[C@H](CCCNC(=N)N)C(=O)N[C@H](CCCCN)C(=O)N[C@H](CCCCN)C(=O)N[C@H](CCCNC(=N)N)C(N)=O [WCopW5] (H-[dW][dL][dL][dW][dI]G[dL][dR][dK][dK][dR]-NH2) | 2.99% | 7.77% | 11.60% | 1.25 µM (≈ 1.83 µg/mL) | 10 µM (≈ 14.7 µg/mL) | 1.25 µM (≈ 1.83 µg/mL) | 1.84 mg/L | 2.5 µM (≈ 3.67 µg/mL)
CC[C@@H](C)[C@@H](NC(=O)[C@@H](Cc1c[nH]c2ccccc12)NC(=O)[C@@H](CC(C)C)NC(=O)[C@@H](CC(C)C)NC(=O)[C@H](N)Cc1c[nH]c2ccccc12)C(=O)NCC(=O)N[C@H](CC(C)C)C(=O)N[C@H](CCCNC(=N)N)C(=O)N[C@H](CCCCN)C(=O)N[C@H](CCCCN)C(N)=O [WCopW8] (H-[dW][dL][dL][dW][dI]G[dL][dR][dK][dK]-NH2) | 3.85% | 8.51% | 15.04% | 2.5 µM (≈ 3.28 µg/mL) | > 20 µM | 5 µM (≈ 6.56 µg/mL) | – | 5 µM (≈ 6.56 µg/mL)
CC[C@@H](C)[C@@H](NC(=O)[C@@H](Cc1c[nH]c2ccccc12)NC(=O)[C@@H](CC(C)C)NC(=O)[C@H](N)CC(C)C)C(=O)NCC(=O)N[C@H](CC(C)C)C(=O)N[C@H](CCCNC(=N)N)C(=O)N[C@H](CCCCN)C(=O)N[C@H](CCCCN)C(=O)N[C@H](CCCNC(=N)N)C(N)=O [WCopW13] (H-[dL][dL][dW][dI]G[dL][dR][dK][dK][dR]-NH2) | 1.00% | 1.13% | 1.21% | > 20 µM | > 20 µM | 5 µM (≈ 6.41 µg/mL) | – | > 20 µM
CC[C@@H](C)[C@@H](NC(=O)[C@@H](Cc1c[nH]c2ccccc12)NC(=O)[C@@H](CC(C)C)NC(=O)[C@H](N)CC(C)C)C(=O)NCC(=O)N[C@H](CC(C)C)C(=O)N[C@H](CCCCN)C(=O)N[C@H](CCCCN)C(=O)N[C@H](CCCCN)C(=O)N[C@H](CCCCN)C(N)=O [WCopW14] (H-[dL][dL][dW][dI]G[dL][dK][dK][dK][dK]-NH2) | 0.98% | 1.06% | 1.10% | > 20 µM | > 20 µM | > 20 µM | – | > 20 µM
CC[C@@H](C)[C@@H](NC(=O)[C@@H](Cc1c[nH]c2ccccc12)NC(=O)[C@@H](CC(C)C)NC(=O)[C@@H](CC(C)C)NC(=O)[C@@H](Cc1c[nH]c2ccccc12)NC(=O)[C@@H](N)CO)C(=O)NCC(=O)N[C@H](CC(C)C)C(=O)N[C@H](CCCNC(=N)N)C(=O)N[C@H](CCCCN)C(=O)N[C@H](CCCCN)C(=O)N[C@H](CCCNC(=N)N)C(N)=O [WCopW19] (H-S[dW][dL][dL][dW][dI]G[dL][dR][dK][dK][dR]-NH2) | 4.32% | 7.26% | 10.57% | 2.5 µM (≈ 3.89 µg/mL) | 10 µM (≈ 15.5 µg/mL) | 2.5 µM (≈ 3.89 µg/mL) | – | 2.5 µM (≈ 3.89 µg/mL)
CC[C@@H](C)[C@@H](NC(=O)[C@@H](Cc1c[nH]c2ccccc12)NC(=O)[C@@H](C)NC(=O)[C@@H](C)NC(=O)[C@H](N)Cc1c[nH]c2ccccc12)C(=O)NCC(=O)N[C@H](CC(C)C)C(=O)N[C@H](CCCNC(=N)N)C(=O)N[C@H](CCCCN)C(=O)N[C@H](CCCCN)C(=O)N[C@H](CCCNC(=N)N)C(N)=O [WCopW20] (H-[dW][dA][dA][dW][dI]G[dL][dR][dK][dK][dR]-NH2) | 0.11% | 0.13% | 0.45% | > 20 µM | > 20 µM | 2.5 µM (≈ 3.46 µg/mL) | – | > 20 µM
CC[C@@H](C)[C@@H](NC(=O)[C@@H](Cc1c[nH]c2ccccc12)NC(=O)[C@@H](Cc1ccc(O)cc1)NC(=O)[C@@H](CC(C)C)NC(=O)[C@H](N)Cc1c[nH]c2ccccc12)C(=O)NCC(=O)N[C@H](CC(C)C)C(=O)N[C@H](CCCNC(=N)N)C(=O)N[C@H](CCCCN)C(=O)N[C@H](CCCCN)C(=O)N[C@H](CCCNC(=N)N)C(N)=O [WCopWY] (H-[dW][dL][dY][dW][dI]G[dL][dR][dK][dK][dR]-NH2) | – | – | – | 10 µM (≈ 15.2 µg/mL) | 20 µM (≈ 30.4 µg/mL) | 1.25 µM (≈ 1.9 µg/mL) | – | 2.5 µM (≈ 3.79 µg/mL)
CC[C@H](C)[C@H](NC(=O)[C@H](Cc1c[nH]c2ccc(O)cc12)NC(=O)[C@H](CC(C)C)NC(=O)[C@H](CC(C)C)NC(=O)[C@@H](N)Cc1c[nH]c2ccc(O)cc12)C(=O)N[C@@H](C)C(=O)N[C@@H](CC(C)C)C(=O)N[C@@H](CCCNC(=N)N)C(=O)N[C@@H](CCCCN)C(=O)N[C@@H](CCCCN)C(N)=O [WhCopW] (H-[Trp(5-OH)]LL[Trp(5-OH)]IALRKK-NH2) | – | – | – | 5 µM (≈ 6.79 µg/mL) | > 20 µM | > 20 µM | – | > 20 µM
CC[C@H](C)[C@H](NC(=O)[C@H](Cc1c[nH]c2ccccc12)NC(=O)[C@H](CC(C)C)NC(=O)[C@H](CC(C)C)NC(=O)[C@@H](N)Cc1c(C(C)(C)C)[nH]c2c(C(C)(C)C)cc(C(C)(C)C)cc12)C(=O)N[C@@H](C)C(=O)N[C@@H](CC(C)C)C(=O)N[C@@H](CCCNC(=N)N)C(=O)N[C@@H](CCCCN)C(=O)N[C@@H](CCCCN)C(N)=O [WtCopW] (H-[Trp(2,5,7-tBu3)]LLWIALRKK-NH2) | – | – | – | 5 µM (≈ 7.47 µg/mL) | > 20 µM | 10 µM (≈ 14.9 µg/mL) | – | 20 µM (≈ 29.9 µg/mL)
HLLWIALRKK-NH2 [HCopW] | – | – | – | >20 µM | >20 µM | >20 µM | – | >20 µM
SLLWIALRKK-NH2 [SCopW] | – | – | – | >20 µM | >20 µM | >20 µM | – | >20 µM
WLLWIALRKK-NH2 [WCopW] | – | – | – | 5 µM | > 20 µM | 5 µM | – | 10 µM
